Data on 39 compounds can be found in patent publication US20240066136A1, “MODIFIED PROTEINS AND PROTEIN DEGRADERS” (Cullgen (Shanghai), Inc., priority 2020, published 2024).

One may read the Kd as the concentration at which binding is half-saturated.

Some results are limits rather than exact numbers.

Sequence of Human DDB1 (Q16531 whole entry): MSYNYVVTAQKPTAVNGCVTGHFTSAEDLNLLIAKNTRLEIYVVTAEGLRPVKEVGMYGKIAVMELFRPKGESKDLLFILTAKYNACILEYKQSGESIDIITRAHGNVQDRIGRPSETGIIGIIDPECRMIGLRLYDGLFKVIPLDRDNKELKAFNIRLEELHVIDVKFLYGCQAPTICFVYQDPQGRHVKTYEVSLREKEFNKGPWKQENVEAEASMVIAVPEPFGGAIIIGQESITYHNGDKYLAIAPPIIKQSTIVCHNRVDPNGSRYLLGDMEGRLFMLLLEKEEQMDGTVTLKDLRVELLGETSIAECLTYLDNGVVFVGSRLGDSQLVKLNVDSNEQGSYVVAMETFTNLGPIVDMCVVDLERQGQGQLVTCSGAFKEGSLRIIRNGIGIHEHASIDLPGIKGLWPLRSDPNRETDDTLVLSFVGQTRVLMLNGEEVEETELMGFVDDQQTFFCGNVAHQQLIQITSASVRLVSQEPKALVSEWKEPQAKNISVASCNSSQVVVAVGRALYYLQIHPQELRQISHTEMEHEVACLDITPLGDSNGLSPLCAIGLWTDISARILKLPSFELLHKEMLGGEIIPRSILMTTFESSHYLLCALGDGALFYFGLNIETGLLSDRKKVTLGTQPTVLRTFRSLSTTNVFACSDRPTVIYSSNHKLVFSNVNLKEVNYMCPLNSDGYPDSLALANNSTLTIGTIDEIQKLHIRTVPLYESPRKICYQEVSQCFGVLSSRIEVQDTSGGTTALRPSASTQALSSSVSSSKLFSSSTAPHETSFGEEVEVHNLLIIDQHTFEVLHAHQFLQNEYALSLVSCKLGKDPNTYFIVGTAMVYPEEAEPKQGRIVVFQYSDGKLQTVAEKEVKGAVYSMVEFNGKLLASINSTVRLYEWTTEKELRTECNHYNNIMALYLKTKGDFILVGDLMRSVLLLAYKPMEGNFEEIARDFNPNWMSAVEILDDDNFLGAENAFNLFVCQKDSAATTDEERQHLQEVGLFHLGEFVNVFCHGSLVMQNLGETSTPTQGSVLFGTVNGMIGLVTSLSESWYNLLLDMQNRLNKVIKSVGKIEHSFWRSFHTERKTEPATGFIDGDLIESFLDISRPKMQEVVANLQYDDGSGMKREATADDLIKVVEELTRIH

One assay addresses Human DDB1 (Homo sapiens (Human), UniProt Q16531). As to the kind of experiment: Surface plasmon resonance (SPR) binding assay to immobilized His-DDB1. The conditions noted are these: SPR, DDB1 binding moieties with linkers and/or target protein binding moiety; read-out: Binding (Kd). As to the method: The binding affinities of heterobifunctional compounds to DDB1 were determined by SPR assay. Purified His-DDB1 proteins were immobilized on a CM5 sensor chip, and a dose range of compound solutions were injected in multi-cycle kinetic format. Data were fit to steady state model and gave equivalent dissociation constants (KD).
Protein Expression and Purification. Human DDB1 (UniPro: Q16531) coding sequences were cloned into pFastBacHTB vector and were expressed in High5 cells using Bac-to-Bac baculovirus expression system (Thermo Fisher Scientific). […] DDB1 proteins were obtained from supernatant of cell lysates and purified through sequential application of Ni affinity (Ni-NTA column. Bio-Rad), and size-exclusion (Superdex 200 16/600GL column, GE Healthcare) column chromatography.
Surface plasmon resonance (SPR) binding assay. All SPR studies were performed on a Biacore X100 plus or T200 instrument (GE Healthcare). Immobilization of purified His-DDB1 was carried out at 25° C. using a CM5 sensor chip. The surface was pre-equilibrated in HBS-EP running buffer (10 mM HEPES, pH7.4, 150 mM NaCl, 3 mM EDTA, 0.05% P20), then activated with EDC/NHS. His-DDB1 proteins were immobilized by amine coupling to a density of 11,000-13,000 resonance units (RUs) on flow cell FC2, whereas flow cell FC1 was used as reference. Both DDB1 immobilized and reference surfaces were deactivated with 1M ethanolamine.
All interaction experiments were performed at 25° C. […] Compound Solutions were injected individually in multi-cycle kinetic format without regeneration (flow rate […], association time 120 s, dissociation time 120 s). Sensorgrams from reference surfaces and blank injections were subtracted from the raw data (double-referencing) and the data was solvent-corrected prior to analysis. All data were fit to steady state affinity model using Biacore Evaluation Software and gave equivalent dissociation constants (KD).
On to `CC(=O)Nc1cc(NCCOCCNC(=O)C[C@@H]2N=C(c3ccc(Cl)cc3)c3c(sc(C)c3C)-n3c(C)nnc32)ccc1C(=O)Nc1nc(C)c([N+](=O)[O-])s1` [D-32, (S)-2-Acetamido-4-((2-(2-(2-(4-(4-chlorophenyl)-2,3,9-trimethyl-6H-thieno[3,2-f][1,2,4]triazolo[4,3-a][1,4]diazepin-6-yl)acetamido)ethoxy)ethyl)amino)-N-(4-methyl-5-nitrothiazol-2-yl)benzamide], for which the Kd lay within 20 to 100 µM.
Consider `Cc1nc(NC(=O)c2ccccc2NC(=O)CCCCCN)sc1[N+](=O)[O-]` [BL-1, 2-(6-Aminohexanamido)-N-(4-methyl-5-nitrothiazol-2-yl)benzamide], for which the Kd is under 20 µM.
Same read-out and setting: the same measure for `CC(=O)Nc1cc(NCCNC(=O)C[C@@H]2N=C(c3ccc(Cl)cc3)c3c(sc(C)c3C)-n3c(C)nnc32)ccc1C(=O)Nc1nc(C)c([N+](=O)[O-])s1` [D-26, (S)-2-Acetamido-4-((2-(2-(4-(4-chlorophenyl)-2,3,9-trimethyl-6H-thieno[3,2-f][1,2,4]triazolo[4,3-a][1,4]diazepin-6-yl)acetamido)ethyl)amino)-N-(4-methyl-5-nitrothiazol-2-yl)benzamide]: 20 to 100 µM.
As for `CC(=O)Nc1cc(NCCCCCCCCCCNC(=O)C[C@@H]2N=C(c3ccc(Cl)cc3)c3c(sc(C)c3C)-n3c(C)nnc32)ccc1C(=O)Nc1nc(C)c([N+](=O)[O-])s1` [D-31, (S)-2-Acetamido-4-((10-(2-(4-(4-chlorophenyl)-2,3,9-trimethyl-6H-thieno[3,2-f][1,2,4]triazolo[4,3-a][1,4]diazepin-6-yl)acetamido)decyl)amino)-N-(4-methyl-5-nitrothiazol-2-yl)benzamide], the Kd lay within 20 to 100 µM.

Still in this assay, the particulars now being: SPR, steady state affinity model, 25° C.; read-out: Binding (DDB1 binder activities, Kd).
Consider `CCCCNc1ccc(C(=O)Nc2ncc(-c3ccccc3)s2)c(-c2ccccc2)c1` [B-120, 5-(Butylamino)-N-(5-phenylthiazol-2-yl)-[1,1′-biphenyl]-2-carboxamide], for which the Kd lay in the range of 20 to 100 µM.
On the same count and under the same terms, the same measure for `Cc1cc(-c2ccccc2)ccc1C(=O)Nc1ncc([N+](=O)[O-])s1` [B-153, 3-Methyl-N-(5-nitrothiazol-2-yl)-[1,1′-biphenyl]-4-carboxamide]: 20 to 100 µM; for `CC(=O)Nc1ccccc1C(=O)Nc1ccccn1` [B-123, 2-Acetamido-N-(pyridin-2-yl)benzamide]: under 20 µM; for `CCCNC(=O)c1cccc(OC(C)=O)c1C(=O)Nc1ncc([N+](=O)[O-])s1` [B-14, 2-((5-Nitrothiazol-2-yl)carbamoyl)-3-(propylcarbamoyl)phenyl acetate]: 20 to 100 µM.
On to `CCCCNc1ccc(C(=O)Nc2nc(C(F)(F)F)c([N+](=O)[O-])s2)c(-c2ccccc2)c1` [B-114, 5-(Butylamino)-N-(5-nitro-4-(trifluoromethyl)thiazol-2-yl)-[1,1′-biphenyl]-2-carboxamide], for which the Kd was under 20 µM.
On the same count and under the same terms, the same measure for `CC(C)C(=O)Nc1ccccc1C(=O)Nc1ncc([N+](=O)[O-])s1` [B-61, 2-Isobutyramido-N-(5-nitrothiazol-2-yl)benzamide]: 20 to 100 µM; for `CC(=O)Nc1ccccc1C(=O)Nc1nc(S(C)(=O)=O)cs1` [B-48, 2-Acetamido-N-(4-(methylsulfonyl)thiazol-2-yl)benzamide]: over 100 µM; for `CCOc1cc(NC2CCOCC2)ccc1C(=O)Nc1ncc([N+](=O)[O-])s1` [B-98, 2-Ethoxy-N-(5-nitrothiazol-2-yl)-4-((tetrahydro-2H-pyran-4-yl)amino)benzamide]: 20 to 100 µM.
For `CCCCNc1ccc(C(=O)Nc2ccc([N+](=O)[O-])s2)c(C(C)C)c1` [B-134, 4-(Butylamino)-2-isopropyl-N-(5-nitrothiophen-2-yl)benzamide], the Kd was over 100 µM.
For the compound `NS(=O)(=O)c1ccccc1C(=O)Nc1ncc([N+](=O)[O-])s1` [B-80, N-(5-Nitrothiazol-2-yl)-2-sulfamoylbenzamide], the Kd lay within 20 to 100 µM.
Take `O=C(Nc1ncc([N+](=O)[O-])s1)c1ccccc1O` [B-2, 2-hydroxy-N-(5-nitrothiazol-2-yl)benzamide]: the Kd was 20 to 100 µM.
The same measure, in the same setting: as for `CCCCNc1ccc(OC(C)=O)c(C(=O)Nc2ncc([N+](=O)[O-])s2)c1` [B-18, 4-(butylamino)-2-((5-nitrothiazol-2-yl)carbamoyl)phenylacetate], the figure is 20 to 100 µM; as for `CC(=O)Oc1cccc(C)c1C(=O)Nc1ncc([N+](=O)[O-])s1` [B-170, 3-Methyl-2-((5-nitrothiazol-2-yl)carbamoyl)phenyl acetate], over 100 µM; as for `CCCC(=O)Nc1cccc(C(=O)Nc2ncc([N+](=O)[O-])s2)c1OC(=O)CCC` [B-24, 2-Butyramido-6-((5-nitrothiazol-2-yl)carbamoyl)phenyl butyrate], 20 to 100 µM.
On the same count and under the same terms, the same measure for `CCCCNc1ccc(C(=O)Nc2ncc([N+](=O)[O-])s2)c(Nc2ccccc2)c1` [B-108, 4-(Butylamino)-N-(5-nitrothiazol-2-yl)-2-(phenylamino)benzamide]: 20 to 100 µM.
The same measure, in the same setting: the same measure for `CC(C)Cc1ccccc1C(=O)N(C)c1ncc([N+](=O)[O-])s1` [B-106, 2-Isobutyl-N-methyl-N-(5-nitrothiazol-2-yl)benzamide]: under 20 µM.
`Cc1ccc(C)c(C(=O)Nc2ncc([N+](=O)[O-])s2)c1` [B-174, 2,5-Dimethyl-N-(5-nitrothiazol-2-yl)benzamide]: the Kd is under 20 µM.
The same measure, in the same setting: the same measure for `O=C1CCCCCN1c1ncc([N+](=O)[O-])s1` [B-100, 1-(5-Nitrothiazol-2-yl)azepan-2-one]: 20 to 100 µM; for `CC(=O)Nc1ccccc1C(=O)Nc1ncc(C#N)s1` [B-39, 2-acetamido-N-(5-cyanothiazol-2-yl)benzamide]: 20 to 100 µM.
`COc1ccccc1C(=O)Nc1ncc([N+](=O)[O-])s1` [B-73, 2-methoxy-N-(5-nitrothiazol-2-yl)benzamide]: the Kd was over 100 µM.
Same read-out and setting: as for `Cc1cc(N2CCOCC2)ccc1C(=O)Nc1ncc([N+](=O)[O-])s1` [B-162, 2-Methyl-4-morpholino-N-(5-nitrothiazol-2-yl)benzamide], the figure is over 100 µM.
Still for that read-out and setting: the same measure for `Nc1nc(N2CCOCC2)nc2c1CCN(Cc1cccc3cccnc13)C2` [B-136, 2-morpholino-7-(quinolin-8-ylmethyl)-5,6,7,8-tetrahydropyrido[3,4-d]pyrimidin-4-amine]: 20 to 100 µM; for `CCc1ccc(C(=O)Nc2ncc([N+](=O)[O-])s2)c(C)c1` [B-158, 4-Ethyl-2-methyl-N-(5-nitrothiazol-2-yl)benzamide]: 20 to 100 µM.
Still for that read-out and setting: as for `CCCCNc1ccc(NC(C)=O)c(C(=O)Nc2ncc([N+](=O)[O-])s2)c1` [B-149, 2-Acetamido-5-(butylamino)-N-(5-nitrothiazol-2-yl)benzamide], the figure is 20 to 100 µM.
In the case of `CNC(=O)Nc1ccccc1C(=O)Nc1ncc([N+](=O)[O-])s1` [B-66, 2-(3-methylureido)-N-(5-nitrothiazol-2-yl)benzamide], the Kd was under 20 µM.
Still for that read-out and setting: as for `CC(=O)Nc1ccccc1C(=O)Nc1nc(Cl)c([N+](=O)[O-])s1` [B-29, 2-Acetamido-N-(4-chloro-5-nitrothiazol-2-yl)benzamide], the figure is 20 to 100 µM; as for `O=C(Nc1ncc([N+](=O)[O-])s1)c1ccccc1NC(=O)C1CC1` [B-62, 2-(Cyclopropanecarboxamido)-N-(5-nitrothiazol-2-yl)benzamide], 20 to 100 µM.
With `CCOc1ccccc1C(=O)Nc1ncc([N+](=O)[O-])s1` [B-7, 2-Ethoxy-N-(5-nitrothiazol-2-yl)benzamide], the dissociation constant Kd is under 20 µM.
Same read-out and setting: the same measure for `CC(C)Nc1ccccc1C(=O)Nc1ncc([N+](=O)[O-])s1` [B-70, 2-(Isopropylamino)-N-(5-nitrothiazol-2-yl)benzamide]: under 20 µM.
As to `O=C(Nc1ncc([N+](=O)[O-])s1)c1ccccc1NC1CC1` [B-71, 2-(cyclopropylamino)-N-(5-nitrothiazol-2-yl)benzamide], the Kd was in the range of 20 to 100 µM.
On the same count and under the same terms, as for `CC(=O)Nc1ccccc1C(=O)Nc1nc(Br)c([N+](=O)[O-])s1` [B-30, 2-acetamido-N-(4-bromo-5-nitrothiazol-2-yl)benzamide], the figure is 20 to 100 µM.
Turning to `CN(C)S(=O)(=O)c1ccccc1C(=O)Nc1ncc([N+](=O)[O-])s1` [B-82, 2-(N,N-dimethylsulfamoyl)-N-(5-nitrothiazol-2-yl)benzamide], the equilibrium dissociation constant (Kd) lay within 20 to 100 µM.
Consider `CCCCNc1ccc(C(=O)Nc2ccc([N+](=O)[O-])s2)c(-c2ccccc2)c1` [B-135, 5-(Butylamino)-N-(5-nitrothiophen-2-yl)-[1,1′-biphenyl]-2-carboxamide], for which the Kd was 20 to 100 µM.
In the case of `O=C(Nc1ncc([N+](=O)[O-])s1)c1ccccc1Br` [B-93, 2-Bromo-N-(5-nitrothiazol-2-yl)benzamide], the Kd is 20 to 100 µM.
For `Cc1cccc(C)c1C(=O)Nc1ncc([N+](=O)[O-])s1` [B-157, 2,6-Dimethyl-N-(5-nitrothiazol-2-yl)benzamide], the Kd was over 100 µM.
